Here are results for 6 molecules from patent US9550796B2, “Pyrrolopyrrolone derivatives and their use as BET inhibitors” (NOVARTIS AG, priority 2013, dated 2017).

A word on the IC50: it is the concentration needed to halve the response being measured. The GI50 is the concentration giving 50% growth inhibition.

In assay [1] the target is BRD4 (Homo sapiens (Human), UniProt O60885). Kind of assay: TR-FRET in-vitro binding assay for BRD4. Particulars: 45 nM His-Brd4(44-477), acetyl-histone H4 (AcK 5, 8, 12, 16) peptide. The protocol: (§1) TR-FRET In-Vitro Binding Assays for BRD2, BRD3, and BRD4: All assays were performed in 384-well microtiter plates. […] Liquid handling and incubation steps were done on an Innovadyne Nanodrop Express equipped with a robotic arm (Thermo CatX, Perkin Elmer/Caliper Twister II) and an incubator (Liconic STX40, Thermo Cytomat 2C450). The assay plates were prepared by addition of 50 nl per well of compound solution in 90% DMSO HummingBird nanodispenser (Zinsser Analytic). […] Reactions were incubated at 30° C. for 35 minutes. […] After 35 minutes incubation at 30° C., plates were measured in a Perkin Elmer EnVision multilabel reader. […] The stock solutions were stored at […] if not used immediately. For the test procedure the vials were defrosted and identified by a scanner whereby a working sheet was generated that guided the subsequent working steps. Compound dilutions were made in 96 well plates. This format enabled the assay of maximally […] at 8 concentrations (single points) including 4 reference compounds, if desired (known BET inhibitors from the prior art, for this and other assays of the type disclosed herein). The dilution protocol included the production of “pre-dilution plates”, “master plates” and “assay plates”. Polypropylene 96-well plates were used as pre-dilution plates. […] All dilution steps were done on a HamiltonSTAR robot. […] Identical “assay plates” were then prepared by pipetting 50 nL each of compound dilutions of the “master plates” into 384-well “assay plates” by means of a HummingBird 384-channel dispenser. These plates were used directly for the assay which was performed in a total volume of 13.55 μL.

The target of assay [2] is BRD3 (Homo sapiens (Human), UniProt Q15059). Put plainly: TR-FRET in-vitro binding assay for BRD3. Particulars: 45 nM His-Brd3(20-477), acetyl-histone H4 (AcK 5, 8, 12, 16) peptide. The protocol: as §1
Chain of BRD3 (Q15059 20-477): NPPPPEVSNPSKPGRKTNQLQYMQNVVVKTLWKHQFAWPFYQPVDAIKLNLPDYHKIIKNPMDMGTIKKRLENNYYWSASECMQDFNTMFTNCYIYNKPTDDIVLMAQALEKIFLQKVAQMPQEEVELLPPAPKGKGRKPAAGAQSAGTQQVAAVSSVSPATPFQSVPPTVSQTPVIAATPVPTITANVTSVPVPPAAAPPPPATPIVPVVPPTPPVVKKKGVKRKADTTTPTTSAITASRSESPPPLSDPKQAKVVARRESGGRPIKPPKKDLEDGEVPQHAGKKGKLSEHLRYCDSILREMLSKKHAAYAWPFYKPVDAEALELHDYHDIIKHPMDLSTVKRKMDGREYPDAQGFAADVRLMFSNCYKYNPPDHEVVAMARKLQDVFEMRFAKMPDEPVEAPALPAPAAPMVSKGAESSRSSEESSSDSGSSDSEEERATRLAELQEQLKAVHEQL
(In general: TR-FRET usually uses a lanthanide donor and a delayed reading to cut background.)

Assay [3] concerns the target CREBBP (Homo sapiens (Human), UniProt Q92793). Kind of assay: AlphaScreen in-vitro binding assay for CREBBP. To be noted: 324 nM His-CREBBP (1081-1197), acetyl-histone H4 (AcK 5, 8, 12) peptide. The protocol: AlphaScreen In-Vitro Binding Assay for CREBBP
In order to assess bromodomain selectivity, we set up a binding assay using the bromodomain encoded by the CREBBP gene. […] The assay was started by stepwise addition of 4.5 μL per well of bromo domain protein (50 mM HEPES, pH 7.5, 0.005% Tween20, 0.02% BSA, 150 mM NaCl, 324 nM His-CREBBP (1081-1197) (custom production at Viva Biotech Ltd.)) and 4.5 μL per well of peptide solution (50 mM HEPES, pH 7.5, 0.005% Tween20, 0.02% BSA, 150 mM NaCl, 120 nM acetyl-histone H4 (AcK 5, 8, 12) (Biosyntan GmbH)). Reactions were incubated at 30° C. for 35 minutes. Subsequently 4.5 μL per well detection mix (50 mM HEPES, pH 7.5, 0.005% Tween20, 0.02% BSA, 150 mM NaCl, 45 μg/ml Ni-chelate acceptor beads, 45 μg/mL streptavidin-donor beads) (Perkin Elmer)) were added. After 60 minutes incubation at room temperature, plates were measured in a Perkin Elmer EnVision multilabel reader. IC50 values were determined from percent inhibition values at different compound concentrations by non-linear regression analysis.
Test compounds were dissolved in DMSO (10 mM) and transferred into 1.4 mL flat bottom or V-shaped Matrix tubes carrying a unique 2D matrix. The stock solutions were stored at […] if not used immediately. For the test procedure the vials were defrosted and identified by a scanner whereby a working sheet was generated that guided the subsequent working steps. Compound dilutions were made in 96 well plates. This format enabled the assay of maximally […] at 8 concentrations (single points) including 4 reference compounds, if desired (known BET inhibitors from the prior art, for this and other assays of the type disclosed herein). The dilution protocol included the production of “pre-dilution plates”, “master plates” and “assay plates”.
Polypropylene 96-well plates were used as pre-dilution plates. A total of 4 pre-dilution plates were prepared including 10 test compounds each on the plate positions A1-A10, one standard compound at A11 and one DMSO control at […]. All dilution steps were done on a HamiltonSTAR robot.
30 μL of individual compound dilutions including standard compound and controls of the 4 “pre-dilution plates” were transferred into a 384-well “master plate” including the following concentrations 10000, […], 1000, 300, 100, 30, 10 and 3 μM, respectively in 90% of DMSO.
Identical “assay plates” were then prepared by pipetting 50 nL each of compound dilutions of the “master plates” into 384-well “assay plates” by means of a HummingBird 384-channel dispenser. These plates were used directly for the assay which was performed in a total volume of 13.55 μL.

Assay [4] deals with MV-4-11. Kind of assay: Cell growth inhibition assay (CellTiter-Glo), MV-4-11. Format: cell-based, human. To be noted: MV-4-11 cells, 4 days; for GI50: Homo sapiens, MV4-11, 96 h, half-maximal growth inhibition; for MV-4-11 TGI: total growth inhibition. The protocol:
(§2) Cell Growth Inhibition Assay
(§3) The human leukemia cell lines MV-4-11, THP-1 and K-562 were employed to characterize the effect of BET inhibitors on cellular proliferation and viability. Cells were obtained from the American Type Culture Collection (ATCC) and cultured at 37° C. in a humidified 5% CO2 incubator in the following media: MV-4-11: DMEM high glucose (Animed #1-26F01-I), 10% FCS (Animed #2-01F26-I), 4 mM L-Glutamine (Animed #5-10K50), 1 mM Sodium Pyruvate (Animed # G03625P), 1× Penicillin-Streptomycin (Animed # F12478P); K-562: Iscove's MEM (Animed #1-28F16-I), 10% FCS (Animed #2-01F26-I), 4 mM L-Glutamine (Animed #5-10K50), 1× Penicillin-Streptomycin (Animed # F12478P); THP-1: RPMI-1640 (Animed #1-41F01-I), 10% FCS (Animed #2-01F26-I), 2 mM L-Glutamine (Animed #5-10K50), 10 mM HEPES (Animed #5-31F100), 1 mM Sodium Pyruvate (Animed # G03625P), 1× Penicillin-Streptomycin (Animed # F12478P). The AML lines MV-4-11 and THP-1 are very sensitive to BET inhibitors and show massive cell death upon BET inhibition (Zuber et al., Nature, 478 (2011), 524-8). Compound-mediated suppression of cell proliferation/viability was assessed by quantification of cellular ATP levels using the CellTiter-Glo (CTG) reagent (Promega). Briefly, cells were seeded in 20 μl fresh medium into 384-well plates, followed by addition of 5 μL medium containing compound dilutions at 5-fold their final intended concentration. Dose-response effects were assessed by 3-fold serial dilutions of the test compound, starting at 10 μM. Following incubation of the cells for 4 days at 37° C. and 5% CO2, the effect of inhibitors on cell viability was quantified following addition of 20 μl CTG and luminescence quantification (integration time: 100 ms) as per vendor manual, using a correspondingly equipped Tecan M200 multi-mode platereader (TECAN, Switzerland). For data analysis, the assay background value determined in wells containing medium, but no cells, was subtracted from all data points. To enable differentiation of cytotoxic from cytostatic compounds, the number of viable cells is assessed relative to that observed at the time of compound addition using a separate cell plate (day 0). The effect of a particular test compound concentration on cell proliferation/viability is expressed as percentage of the background- and day 0-corrected luminescence reading obtained for cells treated with vehicle only (DMSO, 0.1% final concentration), which is set as 100%, whereas that luminescence reading for wells containing medium is set as −100%. Compound concentrations leading to half-maximal (IC50) and total growth inhibition (TGI) were determined using standard four parameter curve fitting.

The test system of assay [5] is THP-1. Kind of assay: Cell growth inhibition assay (CellTiter-Glo), THP-1. It is filed as cell-based, human. To be noted: THP-1 cells, 4 days; for GI50: Homo sapiens, 96 h, half-maximal growth inhibition; for THP-1 TGI: total growth inhibition. The procedure: as §2, §3
Background: ATP-based viability assays read luminescence as a measure of living cells.

Assay [6] relates to K-562. Kind of assay: Cell growth inhibition assay (CellTiter-Glo), K-562. Format: cell-based, human. To be noted: K-562 cells, 4 days; for GI50: Homo sapiens, K562, 96 h, half-maximal growth inhibition; for K-562 TGI: total growth inhibition. The protocol:
as §2, §3

Chain of CREBBP (Q92793 1081-1197): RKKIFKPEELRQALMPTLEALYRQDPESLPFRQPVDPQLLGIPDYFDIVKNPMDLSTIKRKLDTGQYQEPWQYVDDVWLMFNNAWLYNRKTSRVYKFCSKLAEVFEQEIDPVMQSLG

Turning to `CCOC(=O)n1cc(C2CC2)c2c1C(c1ccc(Cl)cc1)N(c1cc(C)c3nnc(C)n3c1)C2=O` (stereo not drawn) [Example 125, Ethyl 6-(4-chlorophenyl)-3-cyclopropyl-5-(3,8-dimethyl-[1,2,4]triazolo[4,3-a]pyridin-6-yl)-4-oxo-5,6-dihydropyrrolo[3,4-b]pyrrole-1(4H)-carboxylate], the IC50 stood at 15 nM in assay [1], 15 nM in assay [2] and 13.7 µM in assay [3]. Further, the GI50 in assay [4] came to 12.1 nM; in assay [5], 15 nM; in assay [6], 115 nM. The “MV-4-11 TGI” value in assay [4] is 0.01925 µM. The “THP-1 TGI” value in assay [5] was found to be 0.0284 µM. For the same molecule, the “K-562 TGI” value in assay [6] was greater than 10 µM.

For `CCOC(=O)n1c(C2=CCOCC2)c(C)c2c1C(c1ccc(Cl)cc1)N(c1cc(C)c3nnc(C)n3c1)C2=O` (stereo not drawn) [Example 123, Ethyl 6-(4-chlorophenyl)-2-(3,6-dihydro-2H-pyran-4-yl)-5-(3,8-dimethyl-[1,2,4]triazolo[4,3-a]pyridin-6-yl)-3-methyl-4-oxo-5,6-dihydropyrrolo[3,4-b]pyrrole-1(4H)-carboxylate], the IC50 was less than 11 nM in assay [1], 11 nM in assay [2] and 2.8 µM in assay [3]. Also, the results for the GI50 in assay [4], in assay [5] and in assay [6] were 5.14 nM, 6.03 nM and 37.5 nM, respectively. The “MV-4-11 TGI” value in assay [4] was 0.009695 µM. For the same molecule, in assay [5], the “THP-1 TGI” value was determined as 0.0135 µM. In assay [6], the “K-562 TGI” value is greater than 10 µM.

With `Cc1cc(N2C(=O)c3c(NC(=O)CN(C)C)cn(C)c3C2c2ccc(Cl)cc2)cn2c(C(F)F)nnc12` (stereo not drawn) [Example 134, N-(6-(4-chlorophenyl)-5-(3-(difluoromethyl)-8-methyl-[1,2,4]triazolo[4,3-a]pyridin-6-yl)-1-methyl-4-oxo-1,4,5,6-tetrahydropyrrolo[3,4-b]pyrrol-3-yl)-2-(dimethylamino)acetamide], the IC50 in assay [1] was 22 nM; in assay [2], 29 nM; in assay [3], greater than 37 µM. In addition, the GI50 was found to be 31.5 nM in assay [4], 34.2 nM in assay [5] and 181 nM in assay [6]. In addition, the “MV-4-11 TGI” value in assay [4] amounted to 0.065 µM. Besides, the “THP-1 TGI” value in assay [5] worked out at 0.0824 µM. In addition, the “K-562 TGI” value in assay [6] was greater than 10 µM.

Consider `CNC(=O)Nc1cn(C)c2c1C(=O)N(c1cc(C)c3nnc(C(F)F)n3n1)C2c1ccc(Cl)cc1` (stereo not drawn) [Example 111, 1-(6-(4-chlorophenyl)-5-(3-(difluoromethyl)-8-methyl-[1,2,4]triazolo[4,3-b]pyridazin-6-yl)-1-methyl-4-oxo-1,4,5,6-tetrahydropyrrolo[3,4-b]pyrrol-3-yl)-3-methylurea], for which the IC50 was less than 11 nM in assay [1], 19 nM in assay [2] and greater than 37 µM in assay [3]. Besides, the figures for the GI50 in assay [4], in assay [5] and in assay [6] were 13.2 nM, 10.7 nM and 113 nM, respectively. For the same molecule, the “MV-4-11 TGI” value in assay [4] stood at 0.0312 µM. Moreover, the “THP-1 TGI” value in assay [5] was determined as 0.0301 µM. The “K-562 TGI” value in assay [6] was greater than 10 µM.

Regarding `CC(=O)Nc1cn(C)c2c1C(=O)N(c1cc(C)c3nnc(C(F)F)n3c1)C2c1ccc(Cl)cc1` (stereo not drawn) [Example 133, N-(6-(4-chlorophenyl)-5-(3-(difluoromethyl)-8-methyl-[1,2,4]triazolo[4,3-a]pyridin-6-yl)-1-methyl-4-oxo-1,4,5,6-tetrahydropyrrolo[3,4-b]pyrrol-3-yl)acetamide], the values for the IC50 in assay [1], in assay [2] and in assay [3] were 29 nM, 32 nM and 13.9 µM, respectively. For the same molecule, the GI50 in assay [4] amounted to 24.6 nM; in assay [5] it was 29.9 nM; in assay [6], 92.7 nM. The “MV-4-11 TGI” value in assay [4] was 0.0497 µM. For the same molecule, the “THP-1 TGI” value in assay [5] was 0.07425 µM. Besides, in assay [6], the “K-562 TGI” value was greater than 10 µM.

Regarding `CNC(=O)c1cn(C)c2c1C(=O)N(c1cc(C)c3nnc(C(F)F)n3c1)C2c1ccc(Cl)cc1` (stereo not drawn) [Example 132, 6-(4-chlorophenyl)-5-(3-(difluoromethyl)-8-methyl-[1,2,4]triazolo[4,3-a]pyridin-6-yl)-N,1-dimethyl-4-oxo-1,4,5,6-tetrahydropyrrolo[3,4-b]pyrrole-3-carboxamide], the IC50 in assay [1] came to 16 nM; in assay [2], 23 nM; in assay [3], 14.1 µM. For the same molecule, the GI50 is 9.57 nM in assay [4], 10.1 nM in assay [5] and 58.6 nM in assay [6]. The “MV-4-11 TGI” value in assay [4] was found to be 0.02315 µM. For the same molecule, the “THP-1 TGI” value in assay [5] amounted to 0.026 µM. Moreover, the “K-562 TGI” value in assay [6] was greater than 10 µM.
